# Laboratory results from US11028084B2, “Selective inhibitors of gentotoxic steress-induced IKK/NF-κB pathways” (Max-Delbrück-Centrum für Molekulare Medizin in der …, priority 2016, dated 2021).
# Key:
# [1] = tested on: NF-κB target genes NFKBIA, TNFAIP3, CXCL8; assay: qRT-PCR of NF-κB target genes after irradiation, U2OS cells; assay type: cell-based, human; conditions: 90 min after irradiation
# Method: (§1) FIG. 14: (A) U2OS cells were pre-treated with different concentrations of olaparib prior to co-treatment with etoposide. Whole cell lysis was performed after 90 min and cleared lysates were used for WB with indicated antibodies. (B) U2OS cells were pre-treated with DMSO, olaparib or the ATM inhibitor Ku55933 and co-treated with etoposide. Cells were harvested after 45 min and subjected to SDS-PAGE/WB. Membranes were stained with the indicated antibodies. The experiment of (B) was performed simultaneously to the experiments of (A) and (E) to control functionality of olaparib in inhibiting PAR chain formation. (C) Densitometrical analyses of (A) and two further independent experiments done as shown in (A). (D) U2OS cells were pre-treated with the substances as indicated prior to irradiation. After 90 min mRNA was isolated, transcribed into cDNA and was used for expression analyses of the indicated genes using quantitative real-time PCR (qRT-PCR). (E) HepG2 cells were pre-treated with the PARP inhibitors olaparib, 3-AB and EB-47 prior to γ-irradiation. Cells were harvested after 15 and 90 min and subjected to SDS-PAGE/WB. Membranes were stained with the indicated antibodies. Error bars equal SEM.
# To quantitate specific mRNA (messenger RNA) species in samples RNA was isolated, RNA concentration was measured and mRNA was transcribed into cDNA. The amount of mRNA transcripts of certain genes within a sample was quantified by employing gene specific primers and using a C-1000 Thermal cycler (Biorad). The expression of genes of interest was normalised against two or three reference genes (HRPT1, RPL_13a and B2M) using the CFX manager software. The fold induction of mRNA was calculated over untreated sample levels by the ΔΔ-Ct method.
# [2] = tested on: p65 S536 phosphorylation; assay: p65 S536 phosphorylation after γ-IR or etoposide, SDS-PAGE/WB, U2OS cells; assay type: cell-based, human; conditions: γ-IR
# Method: FIG. 3: (A) U2OS cells were pre-treated with increasing concentrations of MW01 in duplicates in a 384 well plate. Then, cells were treated with etoposide, fixed and subjected to IF of p65. Spatial measurement of p65 cytosolic and nuclear localisation was used for calculation of p65 translocation rates. (B) U2OS cells were pre-treated with DMSO, MW01 and irradiated with γ-IR. After 90 min cells were lysed and subjected to SDS-PAGE/WB and EMSA. (C) Cells were pre-treated with different concentrations of MW01 as indicated, treated with γ-IR (C) or etoposide (D) and subjected to WB or EMSA, respectively. LDH in (C) represents the loading control.
# as §1, with “Cells were harvested after 15 and 90 min and subjected to SDS-PAGE/WB. Membranes were stained with the indicated antibodies. Error bars equal SEM.” left out
# After transfer of proteins on PVDF membranes unspecific binding of antibodies was blocked by incubation of membranes in 5% skim milk powder in TBST buffer (or 3% BSA in TBST for phosphorylation-specific antibodies) for 1 h at RT. […] After three times of washing with TBST and once with PBS for 5 min, chemiluminescent photon emission was detected using a CCD camera system (Fusion Solo). […]
# [3] = tested on: TNFα-induced NF-κB activation; assay: p65 S536 phosphorylation after TNFα stimulation, SDS-PAGE/WB, U2OS cells; assay type: cell-based, human; conditions: 10 μM and 20 μM
# Method: FIG. 4: (A) U2OS cells were pre-treated with increasing concentrations of MW01 in triplicates in a 384 well plate. Then, cells were treated with TNFα, fixed and subjected to IF staining of p65. Spatial measurement of p65 cytosolic and nuclear signals was used for the calculation of p65 translocation rates. (B) U2OS cells were pre-treated with MW01 at concentrations of 10 or 20 μM and stimulated with TNFα. Cell lysates were subjected to SDS-PAGE/WB. (C) HEK293 cells were pre-treated with DMSO or MW01 followed by administration of etoposide or TNFα. Cell lysates were used for EMSA.
# For the activation of the canonical NF-κB pathway cells were treated with recombinant human TNFα (10 ng/ml) or IL-1β (10 ng/ml) for 20-30 min at 37° C.
# [4] = target: nuclear IKKγ-PIASy-PARP1-ATM signalosome (Homo sapiens, UniProt P09874+Q13315+Q8N2W9+Q9Y6K9); assay: Nuclear PARP1-signalosome formation, IKKγ co-immunoprecipitation, HEK293 cells; assay type: cell-based; design: endogenous in cells; host or cells: HEK293
# Sequence of nuclear IKKγ-PIASy-PARP1-ATM signalosome (Q9Y6K9 whole entry): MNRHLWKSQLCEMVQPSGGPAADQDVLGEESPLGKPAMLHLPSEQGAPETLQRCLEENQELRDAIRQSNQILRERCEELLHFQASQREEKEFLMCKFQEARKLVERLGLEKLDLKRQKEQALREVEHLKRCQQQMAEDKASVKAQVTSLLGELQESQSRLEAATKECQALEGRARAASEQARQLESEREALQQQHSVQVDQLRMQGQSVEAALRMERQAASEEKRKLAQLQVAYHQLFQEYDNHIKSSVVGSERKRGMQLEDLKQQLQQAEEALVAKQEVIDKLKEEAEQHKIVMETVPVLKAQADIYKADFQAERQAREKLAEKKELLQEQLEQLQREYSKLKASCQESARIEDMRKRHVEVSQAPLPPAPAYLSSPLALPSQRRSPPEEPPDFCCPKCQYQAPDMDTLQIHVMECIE
# Sequence of nuclear IKKγ-PIASy-PARP1-ATM signalosome (Q8N2W9 2-510 limits assumed): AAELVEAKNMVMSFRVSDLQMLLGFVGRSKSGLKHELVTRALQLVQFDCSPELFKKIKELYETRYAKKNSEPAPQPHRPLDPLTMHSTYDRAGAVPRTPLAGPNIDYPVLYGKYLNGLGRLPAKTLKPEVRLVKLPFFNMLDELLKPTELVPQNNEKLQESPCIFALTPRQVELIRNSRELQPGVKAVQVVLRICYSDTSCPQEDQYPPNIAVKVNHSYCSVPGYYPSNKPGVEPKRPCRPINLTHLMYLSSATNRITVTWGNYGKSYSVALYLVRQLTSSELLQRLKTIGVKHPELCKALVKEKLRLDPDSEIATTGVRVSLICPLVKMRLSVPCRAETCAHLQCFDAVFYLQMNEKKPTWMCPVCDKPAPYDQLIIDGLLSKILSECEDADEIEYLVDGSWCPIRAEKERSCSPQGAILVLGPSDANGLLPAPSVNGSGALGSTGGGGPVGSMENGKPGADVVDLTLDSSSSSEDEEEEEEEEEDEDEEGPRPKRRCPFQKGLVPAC
# Sequence of nuclear IKKγ-PIASy-PARP1-ATM signalosome (P09874 2-1014 limits assumed): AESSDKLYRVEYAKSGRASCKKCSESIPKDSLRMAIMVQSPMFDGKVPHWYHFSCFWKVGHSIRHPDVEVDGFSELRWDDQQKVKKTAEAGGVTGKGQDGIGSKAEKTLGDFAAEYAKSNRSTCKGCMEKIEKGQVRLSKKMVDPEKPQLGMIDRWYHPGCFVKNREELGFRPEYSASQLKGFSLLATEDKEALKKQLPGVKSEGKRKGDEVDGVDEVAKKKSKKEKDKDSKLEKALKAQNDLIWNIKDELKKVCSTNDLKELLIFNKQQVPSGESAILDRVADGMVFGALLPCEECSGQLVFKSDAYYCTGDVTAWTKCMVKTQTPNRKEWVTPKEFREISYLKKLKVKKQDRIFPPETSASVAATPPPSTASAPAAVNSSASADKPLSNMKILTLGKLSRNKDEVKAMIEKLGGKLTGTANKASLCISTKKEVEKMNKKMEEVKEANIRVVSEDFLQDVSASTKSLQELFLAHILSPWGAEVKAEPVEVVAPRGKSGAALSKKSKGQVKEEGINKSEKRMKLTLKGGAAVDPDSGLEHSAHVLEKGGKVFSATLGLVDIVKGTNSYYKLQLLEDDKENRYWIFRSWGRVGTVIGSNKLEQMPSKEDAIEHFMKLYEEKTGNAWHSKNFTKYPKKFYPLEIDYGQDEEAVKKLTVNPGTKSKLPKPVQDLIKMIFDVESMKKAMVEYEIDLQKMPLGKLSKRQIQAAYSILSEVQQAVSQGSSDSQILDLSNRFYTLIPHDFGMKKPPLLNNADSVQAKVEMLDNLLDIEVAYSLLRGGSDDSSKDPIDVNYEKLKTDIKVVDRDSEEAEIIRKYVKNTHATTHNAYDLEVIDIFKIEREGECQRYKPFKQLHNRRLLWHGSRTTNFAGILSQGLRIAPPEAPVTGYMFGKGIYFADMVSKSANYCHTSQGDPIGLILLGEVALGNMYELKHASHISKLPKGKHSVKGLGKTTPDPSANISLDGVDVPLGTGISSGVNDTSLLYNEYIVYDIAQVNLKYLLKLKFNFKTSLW
# Sequence of nuclear IKKγ-PIASy-PARP1-ATM signalosome (Q13315 2-3056 limits assumed): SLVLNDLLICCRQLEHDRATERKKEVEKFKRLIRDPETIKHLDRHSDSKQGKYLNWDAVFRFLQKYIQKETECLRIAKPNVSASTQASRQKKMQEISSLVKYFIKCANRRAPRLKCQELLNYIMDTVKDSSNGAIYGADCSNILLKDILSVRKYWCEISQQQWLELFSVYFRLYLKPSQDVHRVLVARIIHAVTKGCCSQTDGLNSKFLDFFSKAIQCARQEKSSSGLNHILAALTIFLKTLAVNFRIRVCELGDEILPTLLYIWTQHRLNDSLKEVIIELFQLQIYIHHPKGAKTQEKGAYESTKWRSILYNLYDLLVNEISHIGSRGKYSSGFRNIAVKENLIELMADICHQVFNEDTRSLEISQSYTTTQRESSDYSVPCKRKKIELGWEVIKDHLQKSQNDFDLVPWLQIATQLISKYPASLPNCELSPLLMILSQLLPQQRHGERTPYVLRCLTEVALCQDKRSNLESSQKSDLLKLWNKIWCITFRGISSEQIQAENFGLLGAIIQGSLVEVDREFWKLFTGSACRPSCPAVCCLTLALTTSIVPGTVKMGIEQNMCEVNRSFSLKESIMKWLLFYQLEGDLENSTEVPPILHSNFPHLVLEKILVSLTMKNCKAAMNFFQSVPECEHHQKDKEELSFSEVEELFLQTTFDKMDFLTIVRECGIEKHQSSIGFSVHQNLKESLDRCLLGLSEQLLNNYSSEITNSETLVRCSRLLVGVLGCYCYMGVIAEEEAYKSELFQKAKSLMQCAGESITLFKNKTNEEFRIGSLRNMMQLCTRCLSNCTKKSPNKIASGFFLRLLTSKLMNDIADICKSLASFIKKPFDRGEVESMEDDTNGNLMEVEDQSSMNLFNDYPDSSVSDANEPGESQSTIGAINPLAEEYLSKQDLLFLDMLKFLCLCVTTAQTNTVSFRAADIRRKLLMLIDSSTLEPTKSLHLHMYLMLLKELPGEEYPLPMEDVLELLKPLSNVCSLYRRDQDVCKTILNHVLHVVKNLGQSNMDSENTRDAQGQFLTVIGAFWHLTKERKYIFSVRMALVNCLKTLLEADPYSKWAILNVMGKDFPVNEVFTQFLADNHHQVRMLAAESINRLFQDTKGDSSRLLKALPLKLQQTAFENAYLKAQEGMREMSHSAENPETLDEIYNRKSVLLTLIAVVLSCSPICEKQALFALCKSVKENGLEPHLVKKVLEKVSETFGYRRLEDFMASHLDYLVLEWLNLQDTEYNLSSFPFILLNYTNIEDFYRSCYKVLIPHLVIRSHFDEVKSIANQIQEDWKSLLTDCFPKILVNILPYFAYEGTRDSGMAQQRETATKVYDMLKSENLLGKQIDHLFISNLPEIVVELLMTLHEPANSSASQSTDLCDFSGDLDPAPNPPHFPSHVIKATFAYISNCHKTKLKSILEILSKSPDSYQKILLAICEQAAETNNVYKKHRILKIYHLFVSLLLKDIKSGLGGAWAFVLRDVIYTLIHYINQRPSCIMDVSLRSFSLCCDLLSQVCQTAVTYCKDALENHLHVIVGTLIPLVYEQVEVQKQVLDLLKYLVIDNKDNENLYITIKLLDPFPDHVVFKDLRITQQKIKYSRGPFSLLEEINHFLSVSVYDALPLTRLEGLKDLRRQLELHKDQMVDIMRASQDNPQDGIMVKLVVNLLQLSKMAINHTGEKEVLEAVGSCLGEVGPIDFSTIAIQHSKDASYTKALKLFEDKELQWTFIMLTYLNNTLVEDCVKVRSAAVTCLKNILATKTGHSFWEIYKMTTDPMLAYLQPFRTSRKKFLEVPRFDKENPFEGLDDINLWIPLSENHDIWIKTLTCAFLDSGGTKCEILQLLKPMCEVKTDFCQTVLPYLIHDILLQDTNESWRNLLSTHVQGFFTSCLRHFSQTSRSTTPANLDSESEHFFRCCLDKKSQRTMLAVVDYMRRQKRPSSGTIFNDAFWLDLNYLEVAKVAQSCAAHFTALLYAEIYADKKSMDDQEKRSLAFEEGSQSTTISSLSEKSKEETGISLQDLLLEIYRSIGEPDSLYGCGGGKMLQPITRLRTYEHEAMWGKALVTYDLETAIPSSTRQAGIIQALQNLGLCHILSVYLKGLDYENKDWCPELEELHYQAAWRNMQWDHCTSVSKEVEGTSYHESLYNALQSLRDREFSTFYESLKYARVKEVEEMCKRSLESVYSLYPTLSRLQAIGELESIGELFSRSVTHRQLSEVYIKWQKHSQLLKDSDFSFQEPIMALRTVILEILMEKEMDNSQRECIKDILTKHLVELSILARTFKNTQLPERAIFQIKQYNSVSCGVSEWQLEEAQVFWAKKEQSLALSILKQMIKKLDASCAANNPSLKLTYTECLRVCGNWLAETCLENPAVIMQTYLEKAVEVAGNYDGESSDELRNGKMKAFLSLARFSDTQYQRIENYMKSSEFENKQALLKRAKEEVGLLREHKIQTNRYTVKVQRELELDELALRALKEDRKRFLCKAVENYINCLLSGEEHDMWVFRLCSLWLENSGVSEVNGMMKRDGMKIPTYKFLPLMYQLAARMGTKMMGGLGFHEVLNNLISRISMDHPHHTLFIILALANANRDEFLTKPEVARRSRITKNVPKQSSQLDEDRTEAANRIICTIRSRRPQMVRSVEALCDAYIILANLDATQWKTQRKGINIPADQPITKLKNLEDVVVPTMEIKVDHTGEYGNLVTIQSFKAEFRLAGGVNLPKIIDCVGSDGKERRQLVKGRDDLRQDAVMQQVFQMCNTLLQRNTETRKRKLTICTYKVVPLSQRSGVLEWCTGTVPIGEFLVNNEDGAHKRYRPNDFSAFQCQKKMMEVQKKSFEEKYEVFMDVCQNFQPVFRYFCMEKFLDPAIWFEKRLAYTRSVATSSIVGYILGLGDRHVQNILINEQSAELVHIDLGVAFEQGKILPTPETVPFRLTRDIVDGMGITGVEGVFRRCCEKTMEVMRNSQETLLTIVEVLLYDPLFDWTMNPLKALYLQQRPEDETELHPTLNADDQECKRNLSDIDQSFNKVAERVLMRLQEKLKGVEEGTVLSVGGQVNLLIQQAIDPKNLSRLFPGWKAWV
# Method: FIG. 8: (A) HepG2 cells were pre-treated with DMSO or MW01 and irradiated. Nuclear cell extracts (NE) were used for PIASy immunoprecipitation (IP). Western blot membranes were incubated with indicated antibodies. (B) Experiment as shown in (A), but with IKKγ IP. (C) Experiment as shown in (B), but done in HEK293 cells. (D) Experiment done as shown in […], but repeated in MEF cells.
# Following cell lysis the protein concentration of samples was determined. For input controls, 40 μg lysate were mixed with 6×SDS-buffer and denatured by heating to 95° C. for 4 min. Approximately 1500 μg protein lysate was used for pulldown and samples volumes were equalled with lysis buffer. Lysates were precleared with 30 μl sepharose A or sepharose G beads (depending on the antibody type used for pulldown) for 30 min, and centrifuged for 5 min at 1,500×g. The supernatant was transferred to a new reaction tube. Primary antibody (2-2.5 μg) was added to the cleared lysate for immunoprecipitation overnight while rotating at 4° C. The next day 30 μl sepharose beads per sample were used for immobilisation of antibodies. Following 4 washes with IP wash buffer precipitated proteins were eluted by mixing with 3×SDS-buffer and heating to 95° C. for 4 min.
compound,measurement,setting,value
"COc1ccc2c(c1OC)c(=O)n1c3ccc(O)cc3c3ccnc2c31 [MW01, 12-hydroxy-6,7-dimethoxy-8H-benzo[c]indolo[3,2,1-ij][1,5]naphthyridin-8-one]","NFKBIA, TNFAIP3 and CXCL8 mRNA induction upon irradiation",[1],complete inhibition
same,p65 S536 phosphorylation following γ-IR,[2],concentration dependent inhibition of p65 S536 phosphorylation
same,p65 S536 phosphorylation after TNFα,[3],no effect
same,Co-IP of PARP-1 with IKKγ,"[4]; HEK293, data not shown",abrogated Co-IP of PARP-1 with IKKγ
same,IKKγ-PIASy-interaction (PIASy co-immunoprecipitation with IKKγ),"[4]; HEK293, γ-irradiation",the interaction was abolished
